Numbers after ± are expanded uncertainties.
Experiment: excess molar enthalpy (molar enthalpy of mixing); xn = mol fraction of the nth substance listed
Conditions: Liquid, Flow calorimetry

Q: Which results are given for FC(F)C(F)(F)F [pentafluoroethane] + FCF?
A: excess molar enthalpy (308.15 K, 5130 kPa, x2 = 0.088): 0.00598 ± 0.000956 kcal/mol; excess molar enthalpy (308.15 K, 5130 kPa, x2 = 0.1692): 0.012 ± 0.000956 kcal/mol; excess molar enthalpy (308.15 K, 5130 kPa, x2 = 0.2444): 0.0174 ± 0.000956 kcal/mol; excess molar enthalpy (308.15 K, 5130 kPa, x2 = 0.3142): 0.0227 ± 0.000956 kcal/mol; excess molar enthalpy (308.15 K, 5130 kPa, x2 = 0.3792): 0.0272 ± 0.000956 kcal/mol; excess molar enthalpy (308.15 K, 5130 kPa, x2 = 0.4399): 0.0308 ± 0.000956 kcal/mol; excess molar enthalpy (308.15 K, 5130 kPa, x2 = 0.4967): 0.0337 ± 0.000956 kcal/mol; excess molar enthalpy (308.15 K, 5130 kPa, x2 = 0.5499): 0.0359 ± 0.000956 kcal/mol; excess molar enthalpy (308.15 K, 5130 kPa, x2 = 0.5999): 0.037 ± 0.000956 kcal/mol; excess molar enthalpy (308.15 K, 5130 kPa, x2 = 0.647): 0.0375 ± 0.000956 kcal/mol; excess molar enthalpy (308.15 K, 5130 kPa, x2 = 0.6913): 0.037 ± 0.000956 kcal/mol; excess molar enthalpy (308.15 K, 5130 kPa, x2 = 0.7332): 0.0359 ± 0.000956 kcal/mol; excess molar enthalpy (308.15 K, 5130 kPa, x2 = 0.7729): 0.0339 ± 0.000956 kcal/mol; excess molar enthalpy (308.15 K, 5130 kPa, x2 = 0.8105): 0.0311 ± 0.000956 kcal/mol; excess molar enthalpy (308.15 K, 5130 kPa, x2 = 0.8461): 0.0275 ± 0.000956 kcal/mol; excess molar enthalpy (308.15 K, 5130 kPa, x2 = 0.88): 0.0232 ± 0.000956 kcal/mol; excess molar enthalpy (308.15 K, 5130 kPa, x2 = 0.9122): 0.0182 ± 0.000956 kcal/mol; excess molar enthalpy (308.15 K, 5130 kPa, x2 = 0.9428): 0.0124 ± 0.000956 kcal/mol; excess molar enthalpy (308.15 K, 5130 kPa, x2 = 0.9721): 0.00621 ± 0.000956 kcal/mol

Q: For CC1CO1 (stereo not drawn) [methyloxirane] + CCCC(C)C, which excess molar enthalpy (323.15 K, 1140 kPa, x1 = 0.0895) is on record?
A: The excess molar enthalpy was 0.0966 ± 0.0012 kcal/mol.

Q: And the excess molar enthalpy (323.15 K, 1140 kPa, x1 = 0.1719)?
A: The excess molar enthalpy was 0.1678 ± 0.00167 kcal/mol.

Q: And the excess molar enthalpy (323.15 K, 1140 kPa, x1 = 0.2479)?
A: The excess molar enthalpy was 0.2199 ± 0.00191 kcal/mol.

Q: What about the excess molar enthalpy (323.15 K, 1140 kPa, x1 = 0.3184) of the same compound?
A: The excess molar enthalpy was 0.2548 ± 0.00215 kcal/mol.

Q: What about the excess molar enthalpy (323.15 K, 1140 kPa, x1 = 0.3838) of the same compound?
A: Its excess molar enthalpy is 0.2782 ± 0.00239 kcal/mol.

Q: What about the excess molar enthalpy (323.15 K, 1140 kPa, x1 = 0.4447) of the same compound?
A: Its excess molar enthalpy is 0.2909 ± 0.00239 kcal/mol.

Q: What about the excess molar enthalpy (323.15 K, 1140 kPa, x1 = 0.5015) of the same compound?
A: The excess molar enthalpy was 0.2964 ± 0.00239 kcal/mol.

Q: What about the excess molar enthalpy (323.15 K, 1140 kPa, x1 = 0.5547) of the same compound?
A: The excess molar enthalpy was 0.2945 ± 0.00239 kcal/mol.

Q: What about the excess molar enthalpy (323.15 K, 1140 kPa, x1 = 0.6045) of the same compound?
A: Its excess molar enthalpy is 0.2873 ± 0.00239 kcal/mol.

Q: And the excess molar enthalpy (323.15 K, 1140 kPa, x1 = 0.6514)?
A: Its excess molar enthalpy is 0.2763 ± 0.00239 kcal/mol.

Q: What about the excess molar enthalpy (323.15 K, 1140 kPa, x1 = 0.6954) of the same compound?
A: The excess molar enthalpy was 0.2591 ± 0.00215 kcal/mol.

Q: And the excess molar enthalpy (323.15 K, 1140 kPa, x1 = 0.737)?
A: Its excess molar enthalpy is 0.2397 ± 0.00215 kcal/mol.

Q: And the excess molar enthalpy (323.15 K, 1140 kPa, x1 = 0.7763)?
A: Its excess molar enthalpy is 0.2177 ± 0.00191 kcal/mol.

Q: And the excess molar enthalpy (323.15 K, 1140 kPa, x1 = 0.8134)?
A: The excess molar enthalpy was 0.1924 ± 0.00191 kcal/mol.

Q: What about the excess molar enthalpy (323.15 K, 1140 kPa, x1 = 0.8486) of the same compound?
A: The excess molar enthalpy was 0.165 ± 0.00167 kcal/mol.

Q: What about the excess molar enthalpy (323.15 K, 1140 kPa, x1 = 0.882) of the same compound?
A: Its excess molar enthalpy is 0.135 ± 0.00143 kcal/mol.

Q: What about the excess molar enthalpy (323.15 K, 1140 kPa, x1 = 0.9137) of the same compound?
A: The excess molar enthalpy was 0.103 ± 0.00143 kcal/mol.

Q: What about the excess molar enthalpy (323.15 K, 1140 kPa, x1 = 0.9439) of the same compound?
A: Its excess molar enthalpy is 0.0691 ± 0.0012 kcal/mol.

Q: And the excess molar enthalpy (323.15 K, 1140 kPa, x1 = 0.9726)?
A: Its excess molar enthalpy is 0.0332 ± 0.0012 kcal/mol.

From the NIST ThermoML archive (doi:10.1021/je034253u)
